Experiment [1] relates to abdominal aortic aneurysms. The conditions noted are these: mouse model of abdominal aortic aneurysms; cited from earlier work.
The test system of a further experiment is vasopressin release. The note with it: intracerebral injection; cited from earlier work.
Experiment [2] addresses T1, human apelin receptor (APJ, AGTRL-1, APLNR) (Homo sapiens, UniProt P35414).
T1 construct: host or cells: Chinese hamster ovary cells
T1 sequence (P35414 1-380): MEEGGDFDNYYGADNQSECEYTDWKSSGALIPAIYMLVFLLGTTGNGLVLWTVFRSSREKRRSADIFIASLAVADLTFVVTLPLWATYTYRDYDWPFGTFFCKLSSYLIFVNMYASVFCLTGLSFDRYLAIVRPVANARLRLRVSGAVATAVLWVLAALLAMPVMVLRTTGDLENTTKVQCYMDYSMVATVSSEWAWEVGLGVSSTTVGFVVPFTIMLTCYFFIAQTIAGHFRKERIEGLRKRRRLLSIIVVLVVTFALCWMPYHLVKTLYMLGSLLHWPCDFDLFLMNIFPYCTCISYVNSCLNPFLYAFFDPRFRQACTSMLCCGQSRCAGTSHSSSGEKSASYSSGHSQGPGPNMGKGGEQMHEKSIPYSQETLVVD
Put plainly: APJ cAMP cell-based assay (forskolin-stimulated CHO cells, enzyme fragment complementation). The note with it: for EC50: CHO cells expressing human APJ, forskolin-stimulated, 0.5 h incubation, 50% of control (apelin-13, 1 nM) response, read-out: APJ cAMP EC50; for Emax: CHO, 0.5 h, read-out: APJ cAMP % resp (efficacy).

[3] abbreviates: percentage of the maximal apelin-13 response at 1 nM (control).

Like-named read-outs stand apart in the source and are kept apart here.

We go through 11 molecules from patent US12319684B2 (Sanford Burnham Prebys Medical Discovery Institute, priority 2014, dated 2025).

For the molecule apelin, the reduction of aneurysm in experiment [1] is 50%. In the experiment with vasopressin release, the “reduction in plasma vasopressin concentrations” value was 40%.
For `COc1ccccc1-n1c(SCc2cc(=O)n3cc(C)ccc3n2)nnc1-c1ccco1` [Example 2, 2-[5-Furan-2-yl-4-(2-methoxy-phenyl)-4H-[1,2,4]triazol-3-ylsulfanylmethyl]-7-methyl-pyrido[1,2-a]pyrimidin-4-one], in experiment [2], the EC50 turned out to be 310 nM. In addition, in experiment [2] (setting [3]), the Emax amounted to 154%.
The corresponding values for `Cc1ccc2nc(CSc3nnc(-c4cccs4)n3-c3ccccc3C)cc(=O)n2c1` [Example 23, 7-Methyl-2-(5-thiophen-2-yl-4-o-tolyl-4H-[1,2,4]triazol-3-ylsulfanylmethyl)-pyrido[1,2-a]pyrimidin-4-one] are 179 nM and 109%.
For `COc1ccccc1-n1c(SCc2ccc(Cl)cc2)nnc1-c1cccs1` [Example 70, 3-(4-Chloro-benzylsulfanyl)-4-(2-methoxy-phenyl)-5-thiophen-2-yl-4H-[1,2,4]triazole], in experiment [2], the EC50 amounted to 2030 nM. The Emax in experiment [2] (setting [3]) was found to be 134%.
Turning to `COc1ccc(-n2c(SCc3cc(=O)n4cc(C)ccc4n3)nnc2-c2cccs2)cc1` [Example 20, 2-[4-(4-Methoxy-phenyl)-5-thiophen-2-yl-4H-[1,2,4]triazol-3-ylsulfanylmethyl]-7-methyl-pyrido[1,2-a]pyrimidin-4-one], in experiment [2], the EC50 was 5000 nM and the Emax came out at 10%.
Regarding `COc1ccccc1-n1c(SCc2nc(=O)c3cc(C#N)ccc3[nH]2)nnc1-c1cccs1` [Example 54, 2-[4-(2-Methoxy-phenyl)-5-thiophen-2-yl-4H-[1,2,4]triazol-3-ylsulfanylmethyl]-4-oxo-1,4-dihydro-quinazoline-6-carbonitrile], the EC50 in experiment [2] turned out to be 31.3 nM. The Emax in experiment [2] (setting [3]) was found to be 118%.
On to `COc1ccccc1-n1c(-c2cccs2)cnc1SCc1cc(=O)n2cc(C)ccc2n1` [Example 79, 2-[1-(2-Methoxy-phenyl)-5-thiophen-2-yl-1H-imidazol-2-ylsulfanylmethyl]-7-methyl-pyrido[1,2-a]pyrimidin-4-one], for which, in experiment [2], the EC50 was determined as 1920 nM and the Emax came to 54%.
`COc1ccccc1-n1c(SCc2nc(=O)c3ccc(C(F)(F)F)cc3[nH]2)nnc1-c1cccs1` [Example 60, 2-[4-(2-Methoxy-phenyl)-5-thiophen-2-yl-4H-[1,2,4]triazol-3-ylsulfanylmethyl]-7-trifluoromethyl-1H-quinazolin-4-one]: the EC50 in experiment [2] is 569 nM. For the same molecule, the Emax in experiment [2] (setting [3]) is 160%.
The corresponding values for `COc1ccccc1-n1c(SCc2ccc(Cl)c(Cl)c2)nnc1-c1cccs1` [Example 71, 3-(3,4-Dichloro-benzylsulfanyl)-4-(2-methoxy-phenyl)-5-thiophen-2-yl-4H-[1,2,4]triazole] are 1220 nM and 99%.
Consider `COc1ccccc1-n1c(SCc2cc(=O)n3cc(C)ccc3n2)nnc1-c1ccc(C)s1` [Example 11, 2-[4-(2-Methoxy-phenyl)-5-(5-methyl-thiophen-2-yl)-4H-[1,2,4]triazol-3-ylsulfanylmethyl]-7-methyl-pyrido[1,2-a]pyrimidin-4-one], for which, in experiment [2], the EC50 came out at 70.4 nM. Also, in experiment [2] (setting [3]), the Emax was determined as 118%.
As to `COc1ccc2nc(CSc3nnc(-c4cccs4)n3-c3ccccc3OC)cc(=O)n2c1` [Example 45, 7-Methoxy-2-[4-(2-methoxy-phenyl)-5-thiophen-2-yl-4H-[1,2,4]triazol-3-ylsulfanylmethyl]-pyrido[1,2-a]pyrimidin-4-one], in experiment [2], the EC50 is 70.5 nM. For the same molecule, the Emax in experiment [2] (setting [3]) was found to be 130%.
